Values of other authors in US20090239791A1, “PHARMACEUTICAL COMPOSITION CONTAINING LIPOPHILIC SUBSTANCE WHICH INHIBITS IL-2 PRODUCTION” (Astellas Pharma Inc., priority 2007, published 2009).

System: human mixed lymphocyte reaction
Details: Transplant Proceedings, No 5, Suppl 6, 36-39, 1987

Structure (SMILES): C=CC[C@@H]1/C=C(\C)C[C@H](C)C[C@H](OC)C2O[C@@](O)(C(=O)C(=O)N3CCCC[C@H]3C(=O)O[C@H](/C(C)=C/[C@@H]3CC[C@@H](O)[C@H](OC)C3)[C@H](C)[C@@H](O)CC1=O)[C@H](C)C[C@@H]2OC (relative stereo) [Tacrolimus, [3S-[3R*[E(1S*,3S*,4S*)],4S*,5R*,8S*,9E,12R*,14R*,15S*,16R*,18S*,19S*,26aR*]]-5,6,8,11,12,13,14,15,16,17,18,19,24,25,26,26a-hexadecahydro-5,19-dihydroxy-3-[2-(4-hydroxy-3-methoxycyclohexyl)-1-methylethenyl]-14,16-dimethoxy-4,10,12,18-tetramethyl-8-(2-propenyl)-15,19-epoxy-3H-pyrido[2,1-c][1,4]oxaazacyclotricosine-1,7,20,21(4H,23H)-tetrone, monohydrate]
- IC50 (a 50% inhibitory drug concentration in a human mixed lymphocyte reaction): 0.18 ng/mL
